Tests used:
quail chymotrypsin = assay: ATEE assay: inhibition of quail intestinal chymotrypsin activity; format: biochemical, Japanese quail; conditions: compound 1 x 10⁻⁵M; ATEE substrate; percentage inhibition of control activity ± standard deviation (n = 3); 5 min, 10 µM
Protocol: The substrate was prepared by dissolving ATEE (10 mg) in Tris-HCl buffer of pH 7.5 containing 30% (v/v) of methanol (25 ml). The quail intestine protease activity was partially purified as described above prior to testing for chymotrypsin activity. The reaction was carried out in a quartz cuvette (1 x 0.25 x 1 cm³) containing substrate (1 ml) and 100 mM Tris-HCl buffer (200 µl). The reaction was started by the addition of the partially purified intestine protease (200 µl) and followed bv the decrease in absorbance at 237 nm over a 5 minute period. All determinations were carried out in triplicate against a reagent blank.

pigeon trypsin = assay: TAME assay: inhibition of pigeon intestinal trypsin activity; format: biochemical; conditions: for Inhibition of Activity: compound 60 µg/ml, TAME substrate, percentage inhibition of control activity ± standard deviation (n = 3), 5 min
Protocol: (§1) Dried avian intestine powder (500 mg) was extracted for 30 minutes in 1 mM HC₁ (5 ml). The extract was centrifuged at 22,000 x g for 30 minutes at 4°C. The resultant supernatant was applied to a column of Sephadex G-50, medium grade (360 mm x 15 mm) and eluted with 0.5 mM HCl at 0.7 ml/min. Fractions (3.5 ml) were collected and tested for the presence of protein by determining their absorbance at 280 nm. The proteinaceous fractions were bulked and concentrated by passing them through an ultrafiltration unit (YM 30 filter). The concentrate was collected and kept at 4°C throughout its use.
The substrate was prepared by dissolving TAME (19 mg) in a mixture of 100 mM Tris-HCl buffer of pH 7.5 (50 ml) and 5% (w/v) calcium chloride solution (2 ml). The pigeon intestine protease was partially purified as described above prior to testing for trypsin activity. The reaction was carried out in a quartz cuvette (1 x 0.25 x 1 cm³) containing substrate (3 ml) and 100 mM Tris-HCl buffer pH 7.5 (100 µl). The reaction was started by the addition of the partially purified intestine protease (100 µl) and followed by the decrease in absorbance at 247 nm over a 5 minute period.
(§2) In both the chymotrypsin and the trypsin assays a control was however carried out using the 200 µl of buffer containing no added compound.

feral pigeons [1] = assay: Three day no-choice feeding test with feral pigeons; format: in vivo; conditions: 0.5% w/w compound/pellet, ± standard deviation; for Mean weight difference: after the test compared with before; for Mean consumption: treated food
Protocol: (§3) Feral pigeons were transferred from a communal outdoor aviary to individual cages and maintained on a 10 hour light - 14 hour dark cycle. Birds were gradually weaned away from their normal diet of maize, wheat and maple peas to a standard laboratory diet of turkey starter pellets.
(§4) The pellets were oven dried and then left to absorb atmospheric moisture. The control food was sprayed with the same volume of acetone/water mixture.
(§5) A group of 35 feral pigeons was caged individually for the trials which used eight compounds of formula (I) together with sucrose octaacetate and dimethyl anthranilate, both of which are substances which are known to be avian repellents. Each bird was subjected to treatment with each compound in a random order subject to the limitation of a latin square design. Each treatment was presented to the birds in no-choice and two-choice conditions. The no-choice phase lasted 3 days, during which a bird was presented with a single bowl containing 120 g of treated food. Each bird was weighed before and after the no-choice phase, as was the amount of food remaining. There immediately followed a two-choice phase in which the birds could choose between food treated with a given chemical and a bowl containing otherwise identical pellets without the chemical (the control treatment utilising two bowls of acetone/water treated pellets, one of which was arbitrarily selected as the control). The two-choice phase lasted four days during which food consumption was monitored daily. The position of the food bowls was alternated each day in order to overcome the confusing of food preference with position preference and ample water and grit were supplied throughout the trial.

Japanese quail [2] = assay: No choice feeding trial with Japanese quail; format: in vivo; conditions: 5,000 ppm additive in turkey starter crumbs, 14 days, ± standard deviation
Source text: (§6) (A) Six week old female japanese quail were preconditoned by weighing them seven days before the start of the feeding trial. Five quail were placed in each of four cages and each cage was provided with a different diet, these being (a) a control diet of standard turkey starter crumbs (TSC), (b) TSC treated with 5,000 ppm cinnamamide, (c) TSC treated with 5,000 ppm 4-hydroxy-3,5-dimethoxycinnamic acid, and (d) TSC treated with 2,500 ppm cinnamamide + 2,500 ppm 4-hydroxy-3,5-dimethoxycinnamic acid. The treated TSC was prepared in each case by dissolving/-suspending the compound or compounds in diethyl ether (1500 ml) and mixing this with TSC (2000 g) at 0.25% or 0.5% w/w concentration compound/TSC in an industrial food mixer for 1 hour to evaporate off the diethyl ether and produce a homogeneous mixture. The control was prepared by mixing TSC (2000 g) with diethyl ether for 1 hour in an industrial food mixer. The amount of each diet consumed and the weight gain of the birds was recorded on a daily basis for a period of 14 days. The trial was carried out in duplicate.
The results of the trial are presented in Table 2, together with the standard deviation. It will be seen that diets (b) and (d) produced a decreased increase in body weight as compared with the control diet (a). It should be appreciated that increased consumption, which apparently occurs with diets (c) and (d), can be the result of a compensation against the occurrence of the enzyme inhibitory effect and a consequent reduction in value of the food consumed.

bullfinch trypsin = assay: BAEE assay: inhibition of bullfinch intestinal trypsin activity; format: biochemical; conditions: compound 1 x 10⁻⁵M; BAEE substrate; percentage inhibition of control activity ± standard deviation (n = 3); 7 min, 10 µM
Protocol: as §1
The substrate was prepared bv dissolving BAEE (10 mg) in a mixture of 50 mM Tris-HCl buffer of pH 7.5 (24 ml) and 5% (w/v) calcium chloride solution (1 ml). The bullfinch intestine protease activity was partially purified as described above prior to testing for trypsin activity. The reaction was carried out in a quartz cuvette (1 x 0.25 x 1 cm³) containing substrate (1 ml) and 50 mM Tris-HCl buffer (200 µl). The reaction was started by the addition of the partially purified intestine protease 1200 µl) and followed by the decrease in absorbance at 253 nm over a 7 minute period. All determinations were carried out in triplicate against a reagent blank.
as §2

feral pigeons [3] = assay: Four day two-choice feeding test with feral pigeons; format: in vivo; conditions: for Mean consumption of treated food: four day two-choice, 0.5% w/w compound/pellet; for deterrent effect on food consumption: two-choice test, proportions of treated and untreated food consumed, statement in words
Protocol: as §3, §4, §5
The data obtained in the four day two-choice test is presented in Table 5 for mean consumption of treated food. […]

Japanese quail [4] = assay: Feeding trial with choice, Japanese quail; format: in vivo; conditions: for Increase in body weight: value is for the birds offered both diets; for Average food eaten: treated diet eaten
Source text: as §6
(B) In a variation of the treatment decribed in (A) four quail were placed in each of four cages and each cage was offered a choice between a control diet of TSC and TSC treated with one of (a) 5,000 ppm cinnamamide, (b) 2,500 ppm cinnamamide, (c) 1,000 ppm cinnamamide, and (d) 2,500 ppm cinnamamide + 2,500 ppm 4-hydroxy-3,5-dimethoxycinnamic acid. The various diets were prepared as described under (A).
The results of the trial are presented in Table 3, together with the standard deviation. It will be seen that in each case the birds consume less treated than untreated food and that although the weight gain was the least for the birds offered the control + 5,000 ppm cinnamamide diets, it was the 2,500 ppm cinnamamide + 2,500 ppm 4-hydroxy-3,5-dimethoxycinnamic acid diet which was least consumed.

[5] = choice between control diet and diet with 1,000 ppm additive
[6] = choice between control diet and diet with 2,500 ppm additive
[7] = choice between control diet and diet with 5,000 ppm additive

In the case of `COc1cccc(C=CC(=O)O)c1` [3-Methoxycinnamic acid], the “Inhibition of Activity Chymotrypsin” value (quail chymotrypsin) is reported as 56 ± 4 percentage.
In the case of `O=C(O)C=Cc1ccc(O)cc1` [4-Hydroxycinnamic acid, 4-hydroxycinnamic acid], the “Inhibition of Activity Chymotrypsin” value (quail chymotrypsin) is reported as 12 ± 1 percentage.
With `O=C(C=Cc1ccc(O)c(O)c1)OC1CC(O)(C(=O)O)CC(O)C1O` (stereo not shown) [3-(3',4'-Dihydroxycinnamoyl)-quinic acid] the “Inhibition of Activity” value (pigeon trypsin) was 3 ± 1 percentage.
In the case of `COc1cc(C=CC(=O)O)cc(OC)c1O` [4-Hydroxy-3,5-dimethoxy-cinnamic acid, 4-Hydroxy-3,5-dimethoxycinnamic acid], the Mean weight difference (feral pigeons [1]) is reported as 2.3 ± 0.9 grams, the Mean consumption (feral pigeons [1]) is reported as 60.2 ± 3.3 grams and the Average food eaten (Japanese quail [2]) is reported as 21 ± 0.3 g/bird/day. For the same compound, the “Increase in body weight” value (Japanese quail [2]) was 0.89 ± 0.10 g/bird/day, the “Inhibition of Activity Trypsin” value (bullfinch trypsin) was 22 ± 2 percentage and the “Mean consumption of treated food” value (feral pigeons [3]) was 29.2 ± 2.8 grams. For the same compound, the “Inhibition of Activity Chymotrypsin” value (quail chymotrypsin) was 94 ± 2 percentage and the “Inhibition of Activity” value (pigeon trypsin) was 16 ± 4 percentage.
`O=C(O)Cc1ccccc1` [Phenylacetic acid, reference compound] was tested, and the “Inhibition of Activity Chymotrypsin” value (quail chymotrypsin) was 13 ± 2 percentage.
For `CNc1ccccc1C(=O)OC` [Dimethylanthranilate, Dimethyl anthranilate, reference compound], the Mean weight difference (feral pigeons [1]) was -4.8 ± 2.0 grams, the Mean consumption (feral pigeons [1]) was 45.9 ± 2.9 grams and the “Mean consumption of treated food” value (feral pigeons [3]) was 18.2 ± 2.4 grams. The “Inhibition of Activity” value (pigeon trypsin) was 9 ± 2 percentage.
In the case of `O=CC=Cc1ccccc1` [Cinnamaldehyde], the “Inhibition of Activity Chymotrypsin” value (quail chymotrypsin) is reported as 57 ± 4 percentage.
With `COc1ccc(C=CC(=O)O)cc1OC` [3,4-Dimethoxycinnamic acid] the Mean weight difference (feral pigeons [1]) was -1.1 ± 0.9 grams, the Mean consumption (feral pigeons [1]) was 55.3 ± 2.3 grams and the “Mean consumption of treated food” value (feral pigeons [3]) was 27.1 ± 2.8 grams. For the same compound, the “Inhibition of Activity Chymotrypsin” value (quail chymotrypsin) was 83 ± 3 percentage and the “Inhibition of Activity” value (pigeon trypsin) was 16 ± 1 percentage.
With `N#CC=Cc1ccccc1` [Cinnamonitrile] the “Inhibition of Activity Chymotrypsin” value (quail chymotrypsin) was 23 ± 1 percentage.
`COc1cc(C=CC(=O)O)cc(OC)c1` [3,5-Dimethoxycinnamic acid] was tested, and the Mean weight difference (feral pigeons [1]) was -12.9 ± 1.2 grams, the Mean consumption (feral pigeons [1]) was 33.1 ± 1.5 grams and the “Mean consumption of treated food” value (feral pigeons [3]) was 12.1 ± 1.7 grams. For the same compound, the “deterrent effect on food consumption” value (feral pigeons [3]) was “most marked”, the “Inhibition of Activity Chymotrypsin” value (quail chymotrypsin) was 63 ± 1 percentage and the “Inhibition of Activity” value (pigeon trypsin) was 14 ± 1 percentage.
With `CC(C=O)=Cc1ccccc1` [α-Methylcinnamaldehyde] the “Inhibition of Activity Chymotrypsin” value (quail chymotrypsin) was 17 ± 5 percentage.
For `CC(=O)OC[C@H]1O[C@@](COC(C)=O)(O[C@H]2O[C@H](COC(C)=O)[C@@H](OC(C)=O)[C@H](OC(C)=O)[C@H]2OC(C)=O)[C@@H](OC(C)=O)[C@@H]1OC(C)=O` [Sucrose octaacetate, reference compound], the Mean weight difference (feral pigeons [1]) was 2.3 ± 0.9 grams, the Mean consumption (feral pigeons [1]) was 54.0 ± 2.6 grams and the “Mean consumption of treated food” value (feral pigeons [3]) was 28.6 ± 2.4 grams.
In the case of `O=C(O)c1ccccc1` [Benzoic acid, reference compound], the “Inhibition of Activity Chymotrypsin” value (quail chymotrypsin) is reported as 14 ± 1 percentage.
`NC(=O)C=Cc1ccccc1` [Cinnamamide, cinnamamide] was tested, and the Mean weight difference (feral pigeons [1]) was -16.2 ± 1.3 grams, the Mean consumption (feral pigeons [1]) was 22.3 ± 2.7 grams and the Average food eaten (Japanese quail [2]) was 17 ± 0.3 g/bird/day. The “Increase in body weight” value (Japanese quail [2]) was 0.14 ± 0.04 g/bird/day, the “Inhibition of Activity Trypsin” value (bullfinch trypsin) was 64 ± 2 percentage and the “Mean consumption of treated food” value (feral pigeons [3]) was 6.0 ± 1.5 grams. The “deterrent effect on food consumption” value (feral pigeons [3]) was “most marked”, the “Increase in body weight” value (Japanese quail [4]; [5]) was 1.29 ± 0.10 g/bird/day and the “Increase in body weight” value (Japanese quail [4]; [6]) was 1.34 ± 0.20 g/bird/day. For the same compound, the “Increase in body weight” value (Japanese quail [4]; [7]) was 0.66 ± 0.10 g/bird/day, the “deterrent effect on food consumption” value (Japanese quail [4]; quail, statement in words) was “a deterrent effect on food consumpton was noted” and the Average food eaten (Japanese quail [4]; [5]) was 6 ± 0.2 g/bird/day. For the same compound, the Average food eaten (Japanese quail [4]; [6]) was 5 ± 0.4 g/bird/day, the Average food eaten (Japanese quail [4]; [7]) was 4 ± 0.2 g/bird/day and the “Inhibition of Activity Chymotrypsin” value (quail chymotrypsin) was 5 ± 1 percentage. The “Inhibition of Activity” value (pigeon trypsin) was 0 percentage and the “activity against pigeon intestinal trypsin” value (pigeon trypsin; statement in words) was “no activity was observed”.
For `COc1cc(C=CC(=O)O)ccc1O` [4-Hydroxy-3-methoxycinnamic acid], the Mean weight difference (feral pigeons [1]) was -0.2 ± 1.1 grams, the Mean consumption (feral pigeons [1]) was 54.5 ± 2.9 grams and the “Mean consumption of treated food” value (feral pigeons [3]) was 22.7 ± 2.4 grams. The “Inhibition of Activity” value (pigeon trypsin) was 16 ± 4 percentage.
For `COc1cc(C=CC(=O)O)cc(OC)c1OC` [3,4,5-Trimethoxycinnamic acid], the Mean weight difference (feral pigeons [1]) was -1.5 ± 0.9 grams, the Mean consumption (feral pigeons [1]) was 53.0 ± 2.1 grams and the “Inhibition of Activity Trypsin” value (bullfinch trypsin) was 36 ± 1 percentage. For the same compound, the “Mean consumption of treated food” value (feral pigeons [3]) was 19.8 ± 2.7 grams, the “deterrent effect on food consumption” value (feral pigeons [3]) was “most marked” and the “Inhibition of Activity Chymotrypsin” value (quail chymotrypsin) was 88 ± 2 percentage. The “Inhibition of Activity” value (pigeon trypsin) was 0 percentage.
In the case of `O=C(O)CCc1ccccc1` [Hydrocinnamic acid], the “Inhibition of Activity Chymotrypsin” value (quail chymotrypsin) is reported as 19 ± 3 percentage.
With `COc1cc(C(=O)O)cc(OC)c1O` [4-Hydroxy-3,5-dimethoxy-benzoic acid, reference compound] the “Inhibition of Activity Chymotrypsin” value (quail chymotrypsin) was 2 ± 2 percentage.
In the case of `O=C(O)C=Cc1cccc(O)c1` [3-Hydroxycinnamic acid], the “Inhibition of Activity Chymotrypsin” value (quail chymotrypsin) is reported as 43 ± 2 percentage.
For `OCC=Cc1ccccc1` [Cinnamyl alcohol], the “Inhibition of Activity Chymotrypsin” value (quail chymotrypsin) was 20 ± 6 percentage.
In the case of `CC(=Cc1ccccc1)C(=O)O` [α-Methylcinnamic acid], the “Inhibition of Activity Chymotrypsin” value (quail chymotrypsin) is reported as 36 ± 3 percentage.

Reference: EP0321208A1, “Improvements in or relating to avian control” (priority 1987, dated 1989)
